Data from patent publication US20250208141A1, “FLUORESCENT PROBE FOR LABELING M1 MACROPHAGES, AND M1 MACROPHAGE MONITORING SYSTEM USING SAME” (INSTITUTE FOR BASIC SCIENCE, priority 2022, published 2025).

What was measured:
GLUTs = assay: Glucose (D/L-glucose) competition test with CDr17 in M1 macrophages; type: cell-based, mouse; conditions: D/L-glucose 0, 20, 60 mM; CDr17 1 μM; M1 macrophages from RAW264.7
Description: In order to analyze a mechanism for selectivity of the compounds (probes) according to the examples, test was performed as follows, using the CDr17 compound of Example 8. First, in order to analyze whether the selectivity of CDr17 is related to GLUTs in cells, a glucose competition test was performed by the following method. As an M1 macrophage medium having no glucose differentiated in RAW264.7 cells, a medium comprising 10% Heat-Inactivated Fetal Bovine Serum (Gibco) and 1% penicillin streptomycin (WELGENE) comprising D/L-glucose at various concentrations (0 (Cont.), 20, 60 mM) were cultured for 5 minutes, and CDr17 (1 μM) was added. The nucleus was stained with Hoechst33342 (1 μg/mL), and the medium was replaced with a fresh medium after 30 minutes. Fluorescence microscopic imaging was performed with Operetta High Throughput screening with a 40× objective lens.

[1] = system: THP-1 M0, M1, M2 macrophages; assay: M1 macrophage selectivity by comparison with 2-NBDG in THP-1 macrophages; type: cell-based, human
Source text: In order to compare the selectivity of CDr17 for M1 macrophages, 2-NBDG which is a generally used fluorescent probe was applied to THP-1 which is a macrophage cell line of human origin and tested.

GLUT1 = target: T1, GLUT1 (Mus musculus, UniProt P17809); assay: GLUT1 blocking with STF-31, then CDr17 fluorescence in M1 macrophages; type: cell-based; conditions: M1 macrophage of RAW264.7; 1 μM CDr17 for 30 minutes
T1 construct: endogenous in cells; host or cells: M1 macrophages of RAW264.7 cells
T1 sequence (P17809 1-492): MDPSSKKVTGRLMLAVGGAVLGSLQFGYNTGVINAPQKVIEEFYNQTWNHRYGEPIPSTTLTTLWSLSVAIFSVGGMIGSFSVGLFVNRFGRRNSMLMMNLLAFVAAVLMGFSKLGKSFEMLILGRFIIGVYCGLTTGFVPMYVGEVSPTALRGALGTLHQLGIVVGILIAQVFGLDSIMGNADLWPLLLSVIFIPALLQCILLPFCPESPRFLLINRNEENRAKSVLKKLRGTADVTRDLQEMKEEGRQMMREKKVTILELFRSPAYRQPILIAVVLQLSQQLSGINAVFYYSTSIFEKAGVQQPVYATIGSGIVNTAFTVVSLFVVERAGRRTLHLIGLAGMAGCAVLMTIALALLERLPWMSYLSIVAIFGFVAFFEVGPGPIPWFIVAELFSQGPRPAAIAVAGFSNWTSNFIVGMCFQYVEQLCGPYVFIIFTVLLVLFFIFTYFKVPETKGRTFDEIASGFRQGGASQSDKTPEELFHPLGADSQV
Description: Next, the function of GLUT1 was blocked using STF-3121 which is a selective inhibitor of GLUT1 in the M1 macrophage of RAW264.7, and then a treatment was performed with 1 μM CDr17 for 30 minutes to monitor the inhibition effect.

GLUT = GLUT inhibition test (CDr17 absorption) with cytochalasin B19; type: cell-based, mouse; conditions: inhibitor 0, 0.03, 0.1, 0.3 μM, 30 minutes, M1 macrophage
Description: Next, a GLUT inhibition test was performed using cytochalasin B19 which is a general GLUT inhibitor. An inhibitor at various concentrations (0, 0.03, 0.1, 0.3 μM) was cultured for 30 minutes with the M1 macrophage, cells were treated with CDr17, and the fluorescence intensity was analyzed (FIG. 3).

O=C[C@H](O)[C@@H](O)[C@H](O)[C@H](O)CO [D-glucose]
effect on CDr17 fluorescence intensity / absorption by the M1 macrophage (GLUTs): decreased dose-dependently

O=[N+]([O-])c1ccc(N[C@H]2C(O)O[C@H](CO)[C@@H](O)[C@@H]2O)c2nonc12 (stereo partly drawn) [Example 2-NBDG, 2-NBDG]
ability to distinguish M1 macrophage from M0 and M2 by fluorescence intensity ([1]; THP-1, CDr17 0.5 μM, 2-NBDG 1, 5, 10, 50, 100 μM): M1 and M2 macrophages were not able to be clearly distinguished at any concentration | concentration needed for observation of fluorescence intensity ([1]; THP-1 macrophages): 100 µM

O=C[C@@H](O)[C@H](O)[C@@H](O)[C@@H](O)CO [L-glucose]
effect on CDr17 fluorescence intensity / absorption by the M1 macrophage (GLUTs): did not affect absorption of CDr17

CC(C)(C)c1ccc(S(=O)(=O)NCc2ccc(C(=O)Nc3cccnc3)cc2)cc1 [STF-31]
entry of CDr17 into M1 cells (GLUT1): significantly decreased dependently on the dose

cytochalasin B19
effect on absorption of CDr17 through GLUT (GLUT): blocked dose-dependently absorption of CDr17 through GLUT
